Reference: the NIST ThermoML archive (doi:10.1021/je0342421)

Conditions: Liquid

CCOC(C)(C)C [2-ethoxy-2-methylpropane]
Conditions | vapor or sublimation pressure [kPa]
312.49 K | 31.7
318.55 K | 40.2
323.25 K | 47.2
325.18 K | 51.4
326.6 K | 54.1
329.02 K | 59
331.96 K | 65.3
333.28 K | 67.4
335.92 K | 74.8
338.08 K | 80.5
340.01 K | 85.8
341.49 K | 90.1
342.88 K | 94.3
343.86 K | 97
345.77 K | 102.8
